Experimental data from patent US10329304B2, “Compounds and methods for inhibition of hedgehog signaling and phosphodiesterase” (Vanderbilt University, priority 2014, dated 2019).
Read-outs that look alike come from different tables or passages of the source.

Legend:
[1] = target: T1, PDE4D2 (Homo sapiens, UniProt Q08499); assay: In vitro PDE assay; type: biochemical; conditions: Table 9A
T1 construct: purchased BPS Biosciences (San Diego, Calif.)
Protocol: (§1) In vitro PDE profiling and dose-response assays were performed by BPS Biosciences (San Diego, Calif.). Kinetic Mechanism of inhibition studies were conducted by Millipore (St. Louis, Mo.). In brief, the PDE assay measures fluorescent polarization of FAM-AMP as FAM-cAMP is converted to FAM-AMP by PDE), the binding agent.
(§2) A series of dilutions of the test compound were prepared with 10% DMSO in assay buffer and 5 μl of the dilution was added to a 50 μl reaction so that the final concentration of DMSO is 1% in all of reactions. All of the PDE enzymatic reactions were conducted in duplicate at room temperature for 60 minutes in a 50 μl mixture containing PDE assay buffer (10 mM Tris-HCl, pH7.4, 10 mM MaCl2, 0.05% Tween 20), 100 nM FAM-cAMP, a PDE enzyme and a test compound.
(§3) After the enzymatic reaction, 100 μl of a binding solution (1:100 dilution of the binding agent, which contains the nano beads that recognize FAM-AMP, with the binding agent diluent) was added to each reaction and the reaction was performed at room temperature for 60 minutes. Fluorescence intensity was measured at an excitation of 485 nm and an emission of 528 nm using a Tecan Infinite M1000 microplate reader. Assays done by Millipore were conducted similarly with changes noted below: […]

[2] = target: T2, PDE4D3 (Homo sapiens, UniProt Q08499); assay: In vitro PDE assay; type: biochemical; conditions: Table 9A
T2 construct: purchased BPS Biosciences (San Diego, Calif.); kinetic studies by Millipore (St. Louis, Mo.)
T2 sequence (Q08499 1-673 isoform Q08499-2): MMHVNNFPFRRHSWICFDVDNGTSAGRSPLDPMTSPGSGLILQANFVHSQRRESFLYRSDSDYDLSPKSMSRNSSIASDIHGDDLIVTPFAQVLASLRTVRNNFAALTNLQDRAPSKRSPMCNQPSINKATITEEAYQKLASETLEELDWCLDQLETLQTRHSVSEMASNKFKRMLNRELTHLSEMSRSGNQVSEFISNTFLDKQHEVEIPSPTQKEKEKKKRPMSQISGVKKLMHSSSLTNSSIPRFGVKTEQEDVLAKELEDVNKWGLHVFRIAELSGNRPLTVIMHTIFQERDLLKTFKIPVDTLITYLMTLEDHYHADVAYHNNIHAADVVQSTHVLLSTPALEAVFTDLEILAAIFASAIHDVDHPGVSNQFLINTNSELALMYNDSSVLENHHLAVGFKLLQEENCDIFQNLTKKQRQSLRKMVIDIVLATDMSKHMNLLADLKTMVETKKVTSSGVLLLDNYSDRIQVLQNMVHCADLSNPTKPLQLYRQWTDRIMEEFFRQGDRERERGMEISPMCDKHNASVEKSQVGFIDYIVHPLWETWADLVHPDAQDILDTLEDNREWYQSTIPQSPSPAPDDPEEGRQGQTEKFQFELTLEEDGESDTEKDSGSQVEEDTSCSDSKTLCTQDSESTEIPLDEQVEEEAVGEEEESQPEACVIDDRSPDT
Protocol: as §1, §2, §3

[3] = tested on: Gli1 mRNA; assay: Hh % Inh.: SAG-induced Gli1 expression in C3H10T½ cells (qPCR); type: cell-based; conditions: Mus musculus, C3H 10T1/2, SAG-induced (100 nM), 24 hours
Protocol: Compounds are dosed from 10 mM DMSO stock solutions, and mRNA is isolated after 24 hours of compound treatment. mRNA is reverse transcribed to produce cDNA which is quantified by quantitative polymerase chain reaction (qPCR) in triplicate and levels are normalized to GAPDH levels. Data is presented as percent inhibition compared to positive control (SAG).

[4] = tested on: Hedgehog signaling (TM3-Gli-Luc); assay: TM3-Gli-Luc luciferase reporter assay stimulated with 20 nM SAG; type: cell-based
In short: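 Luciferase read-out divided by CellTiter-Glo viability, minus DMSO/no-SAG baseline, expressed relative to 20 nM SAG alone. Cells exposed to compound with SAG for 48 h at 37 °C in 2.5% FBS DMEM/F12 on gelatin. EC50 ±SEM from at least two separate-day runs.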

[5] = Lipophilic efficiency (LipE = pEC50 − cLogP) and cLogP
Protocol: Therefore, we prioritized phenotypic analog evaluation in the Gli-responsive luciferase reporter line TM3-Gli-Luc stimulated with 20 nM Smo agonist (SAG) while concurrently monitoring non-specific cellular toxicity. Additionally, lipophilic efficiency (LipE), a concurrent readout of a compound's potency (pEC50) and lipophilicity (cLogP) derived by subtracting the latter from the former, was utilized to optimize solubility properties (Table 12B), allowing for straightforward tracking of compounds with improvements in both parameters.

[6] = tested on: Hedgehog signaling (Gli-Luc reporter); assay: Hh Gli-Luciferase reporter assay in Shh-Light2 cells; type: cell-based, mouse; conditions: Mus musculus, Shh Light2; Table 9B; read-out: Shh Light2 Luc EC50
Protocol: For Hh signaling assays, Shh-Light2 cells stably transfected with Gli-Luciferase reporter construct were used along with Shh-conditioned media, as previously described^7. Alternatively, 3 μM purmorphamine or 20 nM Smoothened agonist (SAG) (Santa Cruz Biotechnology, Santa Cruz, Calif.) was used to induce Hh signaling. Reporter cells were seeded in 96-well plates and incubated overnight with the various concentrations of eggmanone and Shh-conditioned media. To assess the effects of overexpression of Gli-2, PDE4D3 and DN-PDE4D3 on Hh signaling, mammalian expression vectors containing these constructs were transfected into Shh-Light2 cells in 96-well plates using Fugene6 (Roche), according to manufacturer's instructions. The transfected or Shh-stimulated cells were incubated overnight with the various concentrations of compound. The cells were then lysed, and cell extracts were subjected to Steady-Glo luciferase assay (Promega) according to manufacturer's instructions. The results were normalized to cell titer, as determined using Cell Titer-Glo luminescence assay (Promega).

[7] = tested on: B16F11; assay: Cell viability assay (CellTiter-Blue, 72 hr); type: cell-based, Mouse; conditions: Mus musculus, B16-F10; Table 10; read-out: CELL KILLING EC50 (μM) Melanoma B16F10
Protocol: (§4) Cancer cell lines were seeded in 96 well tissue culture plate at a low density (10,000 cells per well) and treated with varying concentrations of Eggmanone. After 72 hr incubation, CellTiter-Blue Cell Viability Assay (Promega, Madison, Wis.) was then performed according to manufacturer's protocol. Absorbance was then measured in a Modulus Microplate reader (Promega, Madison, Wis.) at 590 nm and compared to cells treated with DMSO.
as §4, with “density” for “density (10,000 cells per well)”, “compounds identified in Table 7.” for “Eggmanone.”

[8] = tested on: DU145; assay: Cell viability assay (CellTiter-Blue, 72 hr); type: cell-based, Human; conditions: DU-145; human cancer cells; read-out: CELL KILLING EC50 (μM) Prostate DU145
Protocol: as §4
as §4, with “density” for “density (10,000 cells per well)”, “compounds identified in Table 7.” for “Eggmanone.”

[9] = tested on: DaoY; assay: Cell viability assay (CellTiter-Blue, 72 hr); type: cell-based, Human; conditions: Daoy; human cancer cells; read-out: CELL KILLING EC50 (μM) Medulloblastoma DaoY
Protocol: as §4
as §4, with “density” for “density (10,000 cells per well)”, “compounds identified in Table 7.” for “Eggmanone.”

[10] = tested on: HCT116; assay: Cell viability assay (CellTiter-Blue, 72 hr); type: cell-based, Human; conditions: HCT-116; human cancer cells; read-out: CELL KILLING EC50 (μM) Colon HTC116
Protocol: as §4
as §4, with “density” for “density (10,000 cells per well)”, “compounds identified in Table 7.” for “Eggmanone.”

[11] = tested on: HeLa; assay: Cell viability assay (CellTiter-Blue, 72 hr); type: cell-based, Human; conditions: human cancer cells, read-out: CELL KILLING EC50 (μM) Cervix HeLa
Protocol: as §4
as §4, with “density” for “density (10,000 cells per well)”, “compounds identified in Table 7.” for “Eggmanone.”

[12] = tested on: MDA-MB- 231; assay: Cell viability assay (CellTiter-Blue, 72 hr); type: cell-based, Human; conditions: MDA-MB-231; human cancer cells; read-out: CELL KILLING EC50 (μM) Breast MDA-231
Protocol: as §4
as §4, with “density” for “density (10,000 cells per well)”, “compounds identified in Table 7.” for “Eggmanone.”

[13] = tested on: RKO; assay: Cell viability assay (CellTiter-Blue, 72 hr); type: cell-based, Human; conditions: RKO; human cancer cells; read-out: CELL KILLING EC50 (μM) Colon RKO
Protocol: as §4
as §4, with “density” for “density (10,000 cells per well)”, “compounds identified in Table 7.” for “Eggmanone.”

[14] = tested on: RWGT2; assay: Cell viability assay (CellTiter-Blue, 72 hr); type: cell-based, Human; conditions: human cancer cells; read-out: CELL KILLING EC50 (μM) Lung Squam, NSCLC RWGT2
Protocol: as §4
as §4, with “density” for “density (10,000 cells per well)”, “compounds identified in Table 7.” for “Eggmanone.”

[15] = tested on: SW480; assay: Cell viability assay (CellTiter-Blue, 72 hr); type: cell-based, Human; conditions: SW480; human cancer cells; read-out: CELL KILLING EC50 (μM) Colon SW480
Protocol: as §4
as §4, with “density” for “density (10,000 cells per well)”, “compounds identified in Table 7.” for “Eggmanone.”

[16] = tested on: MCF7; assay: Cell viability assay (CellTiter-Blue, 72 hr); type: cell-based; conditions: MCF7; human cancer cells; read-out: CELL KILLING EC50 (μM) Breast MCF7
Protocol: as §4
as §4, with “density” for “density (10,000 cells per well)”, “compounds identified in Table 7.” for “Eggmanone.”

[17] = tested on: PC3; assay: Cell viability assay (CellTiter-Blue, 72 hr); type: cell-based; conditions: PC-3; human cancer cells; read-out: CELL KILLING EC50 (μM) Prostate PCx3
Protocol: as §4

[18] = tested on: H82; assay: Cell killing EC50 in H82 lung cancer cells (Table 10); type: cell-based; conditions: NCI-H82; human cancer cells
Protocol: It is anticipated that compounds disclosed herein could serve as an anti-tumor, anti-angiogenic, anti-metastatic, agent in the treatment of cancer. To this end, a series of clinically relevant cancer lines were assayed and the cell-killing EC50s for compounds according to the subject matter disclosed herein are provided in Table 10.

[19] = target: PDE4D (Homo sapiens, UniProt Q08499); assay: PDE4 inhibition assay (PDE4D IC50); type: biochemical; conditions: mean ± SEM, normalized to DMSO; read-out: PDE4D IC50
Sequence of PDE4D (Q08499 whole entry): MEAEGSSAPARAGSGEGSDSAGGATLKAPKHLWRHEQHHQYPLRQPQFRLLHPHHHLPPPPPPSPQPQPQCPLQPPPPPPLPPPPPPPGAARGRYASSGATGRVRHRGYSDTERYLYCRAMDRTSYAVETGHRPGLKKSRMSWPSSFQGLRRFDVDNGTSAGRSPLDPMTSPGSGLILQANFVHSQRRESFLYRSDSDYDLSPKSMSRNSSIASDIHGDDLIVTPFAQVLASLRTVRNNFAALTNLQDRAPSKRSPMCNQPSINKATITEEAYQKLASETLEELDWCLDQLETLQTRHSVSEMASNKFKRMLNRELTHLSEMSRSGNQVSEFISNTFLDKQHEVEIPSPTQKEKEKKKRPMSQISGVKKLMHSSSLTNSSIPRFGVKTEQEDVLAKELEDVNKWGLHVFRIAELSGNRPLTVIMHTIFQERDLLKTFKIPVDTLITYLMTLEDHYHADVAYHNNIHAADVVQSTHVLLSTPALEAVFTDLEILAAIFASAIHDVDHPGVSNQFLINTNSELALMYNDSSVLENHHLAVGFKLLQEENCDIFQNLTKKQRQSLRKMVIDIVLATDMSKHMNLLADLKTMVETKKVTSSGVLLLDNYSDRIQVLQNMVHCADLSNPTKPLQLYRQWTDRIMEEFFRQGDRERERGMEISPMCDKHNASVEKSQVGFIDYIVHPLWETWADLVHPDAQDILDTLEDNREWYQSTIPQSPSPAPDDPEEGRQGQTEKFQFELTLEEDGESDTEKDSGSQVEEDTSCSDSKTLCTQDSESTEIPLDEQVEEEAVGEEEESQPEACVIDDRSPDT
Protocol: as §1, §2
After the enzymatic reaction, 100 μl of a binding solution (1:100 dilution of the binding agent, which contains the nano beads that recognize FAM-AMP, with the binding agent diluent) was added to each reaction and the reaction was performed at room temperature for 60 minutes. Fluorescence intensity was measured at an excitation of 485 nm and an emission of 528 nm using a Tecan Infinite M1000 microplate reader. Assays done by Millipore were conducted similarly with changes noted below:
Hedgehog signaling inhibition and PDE4 inhibition of various compounds disclosed herein was assayed as described herein above.

[20] = 20 nM SAG, mean ± standard error of the mean, read-out: TM3-Gli-Luc EC50
[21] = Calculated as pEC50 - cLogP, Molinspiration Cheminformatics

T1 sequence (Q08499 303-809): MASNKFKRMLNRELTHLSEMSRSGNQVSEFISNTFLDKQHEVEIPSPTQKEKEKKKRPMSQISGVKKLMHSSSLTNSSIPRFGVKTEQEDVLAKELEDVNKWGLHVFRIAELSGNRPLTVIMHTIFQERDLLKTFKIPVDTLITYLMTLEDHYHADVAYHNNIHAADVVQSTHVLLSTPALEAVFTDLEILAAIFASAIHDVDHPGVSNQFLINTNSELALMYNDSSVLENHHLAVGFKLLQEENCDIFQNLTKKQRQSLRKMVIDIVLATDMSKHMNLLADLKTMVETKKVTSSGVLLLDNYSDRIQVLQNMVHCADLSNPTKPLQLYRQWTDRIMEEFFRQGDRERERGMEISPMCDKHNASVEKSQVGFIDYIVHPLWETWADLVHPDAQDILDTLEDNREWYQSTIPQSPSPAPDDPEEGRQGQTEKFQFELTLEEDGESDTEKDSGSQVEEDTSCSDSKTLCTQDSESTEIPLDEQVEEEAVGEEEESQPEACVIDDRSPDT

EC50 [6]	Structure (SMILES)	EC50 [4, 20]	LipE [5, 21]	EC50 [7]	EC50 [8]	EC50 [9]	EC50 [10]	EC50 [11]	EC50 [12]	EC50 [13]	EC50 [14]	EC50 [15]	EC50 [16]	EC50 [17]	EC50 [18]	also measured
	O=C(CSc1nc2sc3c(c2c(=O)n1-c1ccccc1)CCCC3)c1cccs1 [JEH-3-058-1]															IC50 [1]: 45 µM; IC50 [2]: 14 µM; inhibition at 1 µM ([3]; 1 pM [sic], read-out: C3H10T1/2 qPCR, Gh1 mRNA % Inh., 1 pM): 12%; inhibition at 10 µM ([3]; 10 pM [sic], read-out: C3H10T1/2 qPCR, Gh1 mRNA % Inh., 10 pM): 85.3%; EC50 ([4]; Table 9A, read-out: TM3 G8 Luciferase EC 50): 12.6 µM
	CS(=O)(=O)c1ccc(C(=O)Nc2ccc(Cl)c(-c3ccccn3)c2)c(Cl)c1 [Vismodegib, reference compound]	0.013 ± 0.004 µM	4.33													Hh inhibitory activity / potency in words ([4]; 20 nM SAG): displayed expected potency; Hh inhibitory activity / potency in words ([4]; 20 nM SAG, listed as 1): low-nanomolar
	C=C(C)Cn1c(SCC(=O)c2cccs2)nc2sc3c(c2c1=O)CCNC3 [Formula 10a]	6.4 ± 0.33 µM	1.45													
> 10 µM	Cn1c(SCC(=O)c2ccc(F)cc2)nc2sc3c(c2c1=O)CCCC3 [HI302]			16 µM	0.078 µM	26.6 µM	21.9 µM	20.2 µM	18.7 µM	0.0096 µM	22.9 µM	3.3 µM	> 100 µM	> 100 µM	> 100 µM	
	C=C(C)Cn1c(SCC(=O)c2cccs2)nc2sc3c(c2c1=O)CCCC3 [Formula 3]	1.34 ± 0.002 µM	0.73													IC50 [19]: 0.38 ± 0.02 µM; EC50 ([4]; TM3-Gli-Luc reporter line stimulated with 20 nM SAG, mean ± SEM, Table 14, read-out: TM3-Gli-Luc EC50): 1.34 ± 0.002 µM; LipE ([5]; pEC50 - cLogP, Table 14): 0.73
> 10 µM	C=CCn1c(SCC(=O)c2ccccc2)nc2sc(C)cc2c1=O [HI277]			> 100 µM	180 µM	247 µM	136 µM	5.11 µM	186 µM	> 100 µM	30.5 µM	0.03 µM	> 100 µM	> 100 µM	> 100 µM	
	C=C(C)Cn1c(SCC(=O)N2CCCC[C@H]2C)nc2sc3c(c2c1=O)CCCC3 [Formula 1ANQ]															IC50 [1]: 1.2 µM; IC50 [2]: 1.7 µM; TM3 G8 Luciferase % Inh., 0.5 pM ([4]; 0.5 pM as printed): 17.4%
2.44 µM	C=C(C)Cn1c(SCC(=O)c2ccc(F)cc2)nc2sc3c(c2c1=O)CCCC3 [HI0863]			4.46 µM	2.38 µM	39.8 µM	0.078 µM	12.2 µM	3.12 µM	42.8 µM	38.8 µM	5.4 µM	> 100 µM	47.7 µM	> 100 µM	
